Patent US10947216B2, “Amide compounds and method for making and using” (Rigel Pharmaceuticals, Inc., priority 2016, dated 2021)
pEC50: −log10 of the molar value. Where a name gives a salt, the structure may show the parent alone.

Tests used:
IL-23 (p19/p40) = assay: IL23-p19 ELISA, dendritic cells (DC differentiated from human PBMC, IFNγ primed), LPS stimulated; type: cell-based; details: Dendritic cell, human PBMC-derived dendritic cells, 1 h compound pre-incubation, LPS 1 μg/ml 18 hours, 10 pt
How it was run: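 PBMC-derived DCs (GM-CSF 100 ng/ml + IL-4 20 ng/ml, 7 days) primed 24 h with IFNγ 50 ng/ml, 50K cells/well; compound pre-incubated 1 h at 37° C, then LPS, 18 h. Supernatant IL-23 by p19-capture/p40-detection chemiluminescent ELISA; cytotoxicity by Cell Titer Glo.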

IL-23p19 = assay: LPS Induced IL23p19 in THP-1 Cells (with IFNγ Primed) Assay; type: cell-based, human; details: Homo sapiens, THP-1, THP-1 cells, IFNγ (50 ng/mL) primed, 1 hour compound pre-incubation, LPS 1 ug/mL 18 hours, 10 pt; read-out: IL23-p19 ELISA, THP1-IFNy, LPS, 10 pt EC50
How it was run: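 THP-1 cells (50K/well) primed ~18 h with IFNγ (50 ng/mL) in RPMI/10% FBS, then incubated with compound in duplicate for 18 h at 37° C. Supernatant IL-23p19 measured by chemiluminescent sandwich ELISA, giving EC50 by curve fitting. Toxicity assessed in parallel on the remaining cells by Cell Titer Glo.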

| Structure (SMILES) | pEC50 (IL-23 (p19/p40)) | pEC50 (IL-23p19) |
| --- | --- | --- |
| CN1CCN(c2ccc(-c3nn(C)cc3NC(=O)c3cccc(-c4cn[nH]c4)n3)nc2)CC1 [Compound I-174, N-(1-methyl-3-(5-(4-methylpiperazin-1-yl)pyridin-2-yl)-1H-pyrazol-4-yl)-6-(1H-pyrazol-4-yl)picolinamide] | 5.15 | 4.71 |
| Cn1cc(NC(=O)c2cccc(-c3ccc(N)nc3)n2)c(-c2ccccn2)n1 [Compound I-43, 6′-amino-N-(1-methyl-3-(pyridin-2-yl)-1H-pyrazol-4-yl)-[2,3′-bipyridine]-6-carboxamide] | 5.84 | 5.88 |
| Cn1cc(NC(=O)c2cccc(-c3cncc(C4CC4)c3)n2)c(-c2ccccn2)n1 [Compound I-13, 5′-cyclopropyl-N-(1-methyl-3-(pyridin-2-yl)-1H-pyrazol-4-yl)-[2,3′-bipyridine]-6-carboxamide] | 6.28 | 5.87 |
| COCCCn1cc(NC(=O)c2cccc(-c3cncc(C)c3)n2)c(-c2ccccn2)n1 [Compound I-169, N-(1-(3-methoxypropyl)-3-(pyridin-2-yl)-1H-pyrazol-4-yl)-5′-methyl-[2,3′-bipyridine]-6-carboxamide] | 5.62 | 6.25 |
| CCO[C@H]1CC[C@H](n2cc(NC(=O)c3cccc(-c4cn[nH]c4)n3)c(-c3ncc(F)cc3F)n2)CC1 [Compound I-184, N-(3-(3,5-difluoropyridin-2-yl)-1-(trans-4-ethoxycyclohexyl)-1H-pyrazol-4-yl)-6-(1H-pyrazol-4-yl)picolinamide] | 5.08 | 6.48 |
| COCCOCCn1cc(NC(=O)c2cccc(Nc3ccc4n[nH]cc4c3)n2)c(-c2ccccn2)n1 [Compound I-155, 6-((2H-indazol-5-yl)amino)-N-(1-(2-(2-methoxyethoxy)ethyl)-3-(pyridin-2-yl)-1H-pyrazol-4-yl)picolinamide formate] | 5.62 | 5.21 |
| Cn1cc(NC(=O)c2cccc(-c3cc[nH]n3)n2)c(-c2ccc(OCC(C)(C)O)cn2)n1 [Compound I-180, N-(3-(5-(2-hydroxy-2-methylpropoxy)pyridin-2-yl)-1-methyl-1H-pyrazol-4-yl)-6-(1H-pyrazol-3-yl)picolinamide] | 5.92 | 6.47 |
| COCCOCCn1cc(NC(=O)c2cccc(-c3cncc(C)c3)n2)c(-c2ccccn2)n1 [Compound I-149, N-(1-(2-(2-methoxyethoxy)ethyl)-3-(pyridin-2-yl)-1H-pyrazol-4-yl)-5′-methyl-[2,3′-bipyridine]-6-carboxamide formate] | 5.85 | 5.92 |
| COCCOCCn1cc(NC(=O)c2cccc(-c3cc4ccc(OC)cc4[nH]3)n2)c(-c2ccccn2)n1 [Compound I-147, 6-(6-methoxy-1H-indol-2-yl)-N-(1-(2-(2-methoxyethoxy)ethyl)-3-(pyridin-2-yl)-1H-pyrazol-4-yl)picolinamide formate] | 4.97 | 4.39 |
| Cn1cc(NC(=O)c2cccc(-c3cncc(OC4CCOCC4)c3)n2)c(-c2ccccn2)n1 [Compound I-23, N-(1-methyl-3-(pyridin-2-yl)-1H-pyrazol-4-yl)-5′-((tetrahydro-2H-pyran-4-yl)oxy)-[2,3′-bipyridine]-6-carboxamide] | 5.75 | 5.64 |
| Cc1cncc(-c2ccnc(C(=O)Nc3cn(C)nc3-c3ccccn3)n2)c1 [Compound I-120, N-(1-methyl-3-(pyridin-2-yl)-1H-pyrazol-4-yl)-4-(5-methylpyridin-3-yl)pyrimidine-2-carboxamide] | 5.52 | 4.33 |
| COC1CC(n2cc(NC(=O)c3cccc(-c4cncc(C)c4)n3)c(-c3ccccn3)n2)C1 (centres unmarked) [Compound I-162, N-(1-(3-methoxycyclobutyl)-3-(pyridin-2-yl)-1H-pyrazol-4-yl)-5′-methyl-[2,3′-bipyridine]-6-carboxamide formate] | 6.78 | 6.30 |
| NC(=O)c1cncc(-c2cccc(C(=O)Nc3cn(C4COC4)nc3-c3ccccn3)n2)c1 [Compound I-133, N6-(1-(oxetan-3-yl)-3-(pyridin-2-yl)-1H-pyrazol-4-yl)-[2,3′-bipyridine]-5′,6-dicarboxamide] | 5.18 | 4.96 |
| Cn1cc(NC(=O)c2cccc(-c3cn[nH]c3)n2)c(N2CCCCC2)n1 [Compound I-73, N-(1-methyl-3-(piperidin-1-yl)-1H-pyrazol-4-yl)-6-(1H-pyrazol-4-yl)picolinamide] | 5.67 | 5.75 |
| Cn1cc(NC(=O)c2cccc(-c3cccnc3)n2)c(-c2ccccn2)n1 [Compound I-2, N-(1-methyl-3-(pyridin-2-yl)-1H-pyrazol-4-yl)-[2,3′-bipyridine]-6-carboxamide] | 5.57 | 5.90 |
| Cn1cc(NC(=O)c2cccc(-c3ccnc(NCC(F)(F)F)c3)n2)c(-c2ccccn2)n1 [Compound I-161, N-(1-methyl-3-(pyridin-2-yl)-1H-pyrazol-4-yl)-2′-((2,2,2-trifluoroethyl)amino)-[2,4′-bipyridine]-6-carboxamide formate] | 5.38 | 5.12 |

| Structure (SMILES) | pEC50 (IL-23 (p19/p40)) | pEC50 (IL-23p19) |
| --- | --- | --- |
| Cn1cc(NC(=O)c2cccc(-c3cncc(N4CCCC4)c3)n2)c(-c2ccccn2)n1 [Compound I-36, N-(1-methyl-3-(pyridin-2-yl)-1H-pyrazol-4-yl)-5′-(pyrrolidin-1-yl)-[2,3′-bipyridine]-6-carboxamide] | 6.11 | 5.37 |
| CS(=O)(=O)Nc1cncc(-c2cccc(C(=O)Nc3cn(C4COC4)nc3-c3ccccn3)n2)c1 [Compound I-115, 5′-(methylsulfonamido)-N-(1-(oxetan-3-yl)-3-(pyridin-2-yl)-1H-pyrazol-4-yl)-[2,3′-bipyridine]-6-carboxamide] | 5.12 | 5.66 |
| Cc1cncc(-c2cccc(C(=O)Nc3cn(C)nc3-c3ccccn3)n2)c1 [Compound I-12, 5′-methyl-N-(1-methyl-3-(pyridin-2-yl)-1H-pyrazol-4-yl)-[2,3′-bipyridine]-6-carboxamide] | 6.97 | 6.60 |
| O=C(Nc1cn(C2COC2)nc1-c1ccccn1)c1cccc(-c2cccnc2)n1 [Compound I-112, N-(1-(oxetan-3-yl)-3-(pyridin-2-yl)-1H-pyrazol-4-yl)-[2,3′-bipyridine]-6-carboxamide] | 5.89 | 6.49 |
| Cn1cc(NC(=O)c2cncc(-c3cc[nH]n3)n2)c(-c2ccccn2)n1 [Compound I-123, N-(1-methyl-3-(pyridin-2-yl)-1H-pyrazol-4-yl)-6-(1H-pyrazol-3-yl)pyrazine-2-carboxamide] | 6.13 | 6.04 |
| CN(C)c1cccc(-c2cccc(C(=O)Nc3cn(C)nc3-c3ccccn3)n2)c1 [Compound I-59, 6-(3-(dimethylamino)phenyl)-N-(1-methyl-3-(pyridin-2-yl)-1H-pyrazol-4-yl)picolinamide] | 5.61 | 4.62 |
| Cc1ccc(-c2cccc(C(=O)Nc3cn(C)nc3-c3ccccn3)n2)cn1 [Compound I-16, 6′-methyl-N-(1-methyl-3-(pyridin-2-yl)-1H-pyrazol-4-yl)-[2,3′-bipyridine]-6-carboxamide] | 5.92 | 5.20 |
| Cn1cc(NC(=O)c2cccc(-c3cncc(NCC4CC4)c3)n2)c(-c2ccccn2)n1 [Compound I-32, 5′-((cyclopropylmethyl)amino)-N-(1-methyl-3-(pyridin-2-yl)-1H-pyrazol-4-yl)-[2,3′-bipyridine]-6-carboxamide] | 5.14 | 5.60 |
| COc1ccc(-c2nn(C)cc2NC(=O)c2cccc(-c3cncc(NC(C)C)c3)n2)nc1 [Compound I-71, 5′-(isopropylamino)-N-(3-(5-methoxypyridin-2-yl)-1-methyl-1H-pyrazol-4-yl)-[2,3′-bipyridine]-6-carboxamide] | 6.38 | 6.52 |
| Cc1cncc(-c2cccc(C(=O)Nc3cn(CCN4CCN(C)CC4)nc3-c3ccccn3)n2)c1 [Compound I-87, 5′-methyl-N-(1-(2-(4-methylpiperazin-1-yl)ethyl)-3-(pyridin-2-yl)-1H-pyrazol-4-yl)-[2,3′-bipyridine]-6-carboxamide] | 5.70 | 7.12 |
| Cn1cc(NC(=O)c2cccc(-c3cnc4[nH]ccc4c3)n2)c(-c2ccccn2)n1 [Compound I-44, N-(1-methyl-3-(pyridin-2-yl)-1H-pyrazol-4-yl)-6-(1H-pyrrolo[2,3-b]pyridin-5-yl)picolinamide] | 5.75 | 6.46 |
| Cc1cncc(-c2cccc(C(=O)Nc3cn(C)nc3N3CCCCC3)n2)c1 [Compound I-76, 5′-methyl-N-(1-methyl-3-(piperidin-1-yl)-1H-pyrazol-4-yl)-[2,3′-bipyridine]-6-carboxamide] | 5.37 | 5.71 |
| Cn1cc(NC(=O)c2cccc(-c3ccn[nH]3)n2)c(-c2ccccn2)n1 [Compound I-6, N-(1-methyl-3-(pyridin-2-yl)-1H-pyrazol-4-yl)-6-(1H-pyrazol-5-yl)picolinamide] | 6.79 | 6.27 |
| Cc1cncc(-c2cccc(C(=O)Nc3cn(C)nc3-c3ccc(OC4COC4)cn3)n2)c1 [Compound I-181, 5′-methyl-N-(1-methyl-3-(5-(oxetan-3-yloxy)pyridin-2-yl)-1H-pyrazol-4-yl)-[2,3′-bipyridine]-6-carboxamide] | 5.38 | 5.83 |
| Cn1cc(NC(=O)c2cccc(-c3cn[nH]c3)n2)c(N2CCOCC2)n1 [Compound I-74, N-(1-methyl-3-morpholino-1H-pyrazol-4-yl)-6-(1H-pyrazol-4-yl)picolinamide] | 5.42 | 4.73 |
